Reference: patent publication US20200009118A1, “COMPOSITIONS AND METHODS FOR THE TREATMENTOF NEURODEGENERATIVE AND OTHER DISEASES” (Glialogix, Inc., priority 2017, published 2020)
One block for each molecule: values may come before it.

How the values were obtained:
[1] = for Cmax GB: pH 2; for AUC / Cmax IB: pH 5.5
[2] = cited from earlier work
[3] = test system: SOD1^G93A transgenic mice; conditions: cited from earlier work
[4] = test system: xCT mRNA in primary rat microglial cells; test: qPCR of xCT mRNA in primary microglia; type: cell-based; conditions: control gene gamma-actin
Protocol: (§1) Following 24 hours, cells were then mixed and aliquoted in to 96 wells at 7,000-20,000 cells per well in fresh media, either complete media (microglia) or minimal media (100 mL Neurobasal Media (#12348-017, Life Tech) supplemented with 1 mL N2 supplement (#17502-048, Life Tech) and 0.5 mM GlutaMax (#35050-061, Life Tech). Compounds to be tested were then added at the indicated concentrations and cells harvested 18 hours later by centrifugation at 2000×g, 5 minutes at 4° C. mRNA was isolated from the cells by use of the Purelink microscale RNA extraction kit (Catalog #12183016, Life Technologies) kit and the mRNA resuspended in 12-22 μl of RNase-free water according to the manufacturer's instructions. cDNA was prepared by use of the Superscript VILO kit (Catalog #11755050, Life Technologies) according to the manufacturer's instructions. The cDNA was eluted in a final volume of 20 μl RNase-free water and 4 μl was used for each qPCR reaction. For the real-time qPCR reactions, primers and reagents were supplied by Life Technologies and used according to the manufacturer's instructions. The detection molecule was the TaqMan probe with FAM dye label on 5′ end that binds to non-labeled primer pairs. The qPCR machine was a model 7500 Fast Real Time machine from ABI and used according to the manufacturer's instructions. 4 μl of the cDNA reaction was used for each qPCR reactions in a final volume of 20 μl. […] mRNA levels were quantitated by measuring the Cycle threshold (Ct) for each qPCR reaction using the standard algorithm supplied with the ABI 7500 Fast qPCR machine without modification. The Ct is defined as the number of cycles required for the fluorescent signal to cross the threshold (e.g. exceeds background level). […] The Cycle threshold is abbreviated Ct. The change in Ct equals [Ct (minus test agent)−Ct (plus test agent)]. Changes in Ct of the test genes xCT and IL1-beta are normalized by subtracting the change in Ct of the control gene, either gamma-actin or Hypoxanthine-guanine phosphoribosyl transferase (HPRT). […] Using the methods described in Example 11, various agents reported to cause activation of neuroinflammatory cells and/or known to cause or reflect damage to neurons, axons and/or oligodendrocytes were tested for their effect on xCT levels in primary rat microglia.

[5] = test system: IL1-beta mRNA in primary rat microglial cells; test: qPCR of IL1-beta mRNA in primary microglia; type: cell-based; conditions: control gene gamma-actin
Protocol: as §1

[6] = test system: Lcn-2 mRNA in primary rat astrocyte cells; test: qPCR of Lcn-2 mRNA in primary astrocytes; type: cell-based; conditions: astrocyte media, control gene gamma-actin
Protocol: (§2) Primary rat astrocyte cells were purchased from All Cells (Catalog #RCTX-001F, Alameda, Calif.), thawed and resuspended in 13.4 ml of DMEM media (Catalog #12-614F, Lonza, Allendale, N.J.) supplemented with 15% v/v FBS (Catalog #F4135, Sigma-Aldrich, St. Louis, Mo.) and 560 μL aliquoted into wells in a 24-well plate. Cells were incubated at 37° C. with 5% CO2. For each qPCR experiment, 2-3 wells (approximately 42,000-63,000 cells) were transferred to a new 24-well plate with fresh astrocyte media, composed of 50% v/v DMEM, 50% v/v Neurobasal media (Catalog #12348-017), Life Technologies, supplemented with 2 mM glutamine, 300 μM L-cystine. Following 24 hours, cells were then mixed and aliquoted into 24 well plates at approximately 10,000 cells per well in the same media. Compounds to be tested were then added at the indicated concentrations and cells harvested 18 hours later by washing once with PBS (Catalog #P5493, Sigma-Aldrich) and then treated with 300 μl of StemProAccutase cell dissociation reagent (Catalog #A11105-01, Life Technologies) and incubated for 5-10 minutes at 37° C. PBS (300 μl) was added and the cells spun down in a microfuge for 5 minutes at 2,000×g at 4° C. The supernatant was removed and mRNA was isolated from the cells by using the Purelink microscale RNA extraction kit (Catalog #12183016, Life Technologies) according to the manufacturer's instructions. The mRNA resuspended in 12-22 μl of RNase-free water. cDNA was prepared by use of the Superscript VILO kit (Catalog #11755050, Life Technologies) according to the manufacturer's instructions. The cDNA was eluted in a final volume of 20 μl RNase-free water in and 4 μl was used for each qPCR reaction. qPCR reactions and primers were as described in Example 11.
(§3) To determine if tunicamycin increased levels of xCT mRNA, Tunicamycin (5 ng/ml) was added to the primary astrocyte cell cultures in astrocyte media. xCT gene expression was determined by qPCR after 18 hours of exposure to tunicamycin.
(§4) The Cycle threshold is abbreviated Ct. The change in Ct equals [Ct (minus test agent)−Ct (plus test agent)]. Changes in Ct of the test genes xCT and Lcn-2 are normalized by subtracting the change in Ct of the control gene, either gamma-actin or Hypoxanthine-guanine phosphoribosyl transferase (HPRT). Ct values are converted to absolute values by the formula: absolute value=2^^(normalized change in Ct). Absolute values are converted to percent change by multiplying the absolute value by 100.
(§5) Using the methods described in Example 11, various agents known to cause activation of neuroinflammatory cells and/or cause or reflect stress and damage to neurons, axons and/or oligodendrocytes were tested for causing an increase in xCT levels in primary rat astrocytes.

[7] = test system: xCT mRNA in primary rat astrocyte cells; test: qPCR of xCT mRNA in primary astrocytes; type: cell-based; conditions: astrocyte media, control gene gamma-actin
Protocol: as §2, §3, §4, §5

xCT = molecular target: T1, xCT (Rattus norvegicus, UniProt A0A8I6AB70); test: Extracellular glutamate from primary astrocytes (Amplex Red Glutamic Acid/Glutamate Oxidase Assay); type: cell-based; conditions: TNF-alpha 100 μg/ml 18 hours in astrocyte media, no sulfasalazine
T1 construct: host or cells: primary rat astrocytes
T1 sequence (A0A8I6AB70 1-502): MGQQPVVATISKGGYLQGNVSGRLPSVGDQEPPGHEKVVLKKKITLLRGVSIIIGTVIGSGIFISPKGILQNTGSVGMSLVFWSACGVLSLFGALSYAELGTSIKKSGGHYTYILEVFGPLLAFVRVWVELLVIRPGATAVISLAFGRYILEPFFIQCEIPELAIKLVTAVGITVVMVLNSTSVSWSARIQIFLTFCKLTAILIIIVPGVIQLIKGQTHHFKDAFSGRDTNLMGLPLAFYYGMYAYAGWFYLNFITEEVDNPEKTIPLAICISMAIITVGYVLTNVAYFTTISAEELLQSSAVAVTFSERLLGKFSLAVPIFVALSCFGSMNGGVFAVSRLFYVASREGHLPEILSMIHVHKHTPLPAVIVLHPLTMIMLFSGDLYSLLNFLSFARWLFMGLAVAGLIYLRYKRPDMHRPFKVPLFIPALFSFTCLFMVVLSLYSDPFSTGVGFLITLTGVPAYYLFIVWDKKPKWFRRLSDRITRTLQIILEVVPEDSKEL
T1 sequence (Q794F9 whole entry partner): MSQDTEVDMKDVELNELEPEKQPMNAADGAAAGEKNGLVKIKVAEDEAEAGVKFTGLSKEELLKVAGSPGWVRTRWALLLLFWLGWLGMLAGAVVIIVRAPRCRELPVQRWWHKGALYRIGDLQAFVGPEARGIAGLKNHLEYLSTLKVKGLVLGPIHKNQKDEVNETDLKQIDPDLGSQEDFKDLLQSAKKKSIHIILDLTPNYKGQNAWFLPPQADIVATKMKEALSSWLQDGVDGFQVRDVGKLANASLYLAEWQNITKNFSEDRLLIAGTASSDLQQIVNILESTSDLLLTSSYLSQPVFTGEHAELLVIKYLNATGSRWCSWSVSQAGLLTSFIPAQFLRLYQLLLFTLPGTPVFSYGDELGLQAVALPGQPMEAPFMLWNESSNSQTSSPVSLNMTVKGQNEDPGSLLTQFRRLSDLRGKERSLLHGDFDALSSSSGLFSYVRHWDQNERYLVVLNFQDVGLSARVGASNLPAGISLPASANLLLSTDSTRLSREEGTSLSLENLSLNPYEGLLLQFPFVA
From the text: xCT is a cystine-glutamate exchange protein that imports extracellular cystine in exchange for exporting intracellular glutamate. xCT activity can be measured by measuring the level of the extracellular glutamate that is exported. For detection of extracellular glutamate, the Amplex Red Glutamic Acid/Glutamate Oxidase Assay Kit from Life Technologies (Catalog #A-1222, Grand Island, N.Y.) was used following the manufacturer's instructions. Fluorescence from the Amplex Red fluorophore is directly proportional to glutamate concentration and was detected on an Enspire plate reader (Perkin-Elmer (Model #2300, Santa Clara, Calif.) with excitation wavelength at 530 nm and detection wavelength at 590 nm according to the manufacturer's instructions.
Astrocytes were grown in 24-well microtiter plates at a density of approximately 10,000 cells/well in a total volume of 400 μl of astrocyte media. Cells were incubated 18 hours in either astrocyte media plus 100 μM cystine (Catalog #C8755; Sigma-Aldrich) or astrocyte media plus 100 μM cystine plus TNF-alpha (100 μg/ml). After 18 hours, the media was removed and the adherent astrocytes washed twice with PBS and then 400 μL of minimal media was added to the cells. The minimal media was EBSS (catalog #E3024, Sigma-Aldrich) supplemented with 100 μM cystine and 10 mM D-glucose (catalog #G8769, Sigma-Aldrich).
The top 25 μL of the supernatant was then transferred to a 0.5 ml microfuge tube and the aliquots frozen at −80.
For the glutamate assay, samples of the media were thawed, pipetted up and down to ensure mixing and 20 μl added to 80 μl of the Amplex Red assay mix in a 96-well microtiter plate (catalog #M4436, Greiner, Frickenhausen, Germany). The reactions were covered in aluminum foil and allowed to proceed for 30 minutes at 37° C. and then fluorescence measured as described above.
Concurrently with analysis of the astrocyte samples, a standard curve of the Amplex Red glutamate assay in the minimal media was prepared following the manufacturer's instructions and using known concentrations of glutamate: 0, 0.5, 1, 2 and 4 μM. Table 19 gives the numerical results of the standard curve assay and the results are depicted graphically in FIG. 17.

[8] = published results in the SOD1 mouse model
[9] = 100 ng/ml, complete media, 18 hours
[10] = 100 ng/ml, minimal media, 18 hours

Molecule: O=C(O)c1cc(/N=N/c2ccc(S(=O)(=O)Nc3ccccn3)cc2)ccc1O [Amorphous sulfasalazine, sulfasalazine]
Cmax GB [1]: 154 µg/mL
AUC [1]: 30,300 min * ug/mL
Cmax IB [1]: 372 µg/mL

Molecule: Nc1ccc(S(=O)(=O)Nc2ccccn2)cc1 [Sulfapyridine, sulfapyridine]
oral bioavailability (reaching the circulation following oral dosing) [2]: > 70%

Molecule: CC(C)Cc1ccc(C(C)C(=O)O)cc1 (stereo not drawn) [ibuprofen]
decreased lifespan after onset of neurological disease [3, 8]: 10%

Molecule: Poly I/C
xCT, Change in Ct normalized to control gene [4, 9]: 6.186
xCT, Fold (absolute) change normalized [4, 9]: 72.8
xCT, Percent change normalized [4, 9]: 7,281%
xCT, Change in Ct normalized to control gene [4, 10]: 3.619
xCT, Fold (absolute) change normalized [4, 10]: 12.3
xCT, Percent change normalized [4, 10]: 1229%
IL1-beta, Percent change normalized [5, 9]: 1,900%
IL1-beta, Percent change normalized [5, 10]: 1,099%
Lcn-2, Percent change normalized ([6]; 10 ug/ml): 76%
xCT, Change in Ct normalized to control gene ([7]; 10 ug/ml): 1.471
xCT, Fold change normalized ([7]; 10 ug/ml): 2.77
xCT, Percent change normalized ([7]; 10 ug/ml): 277%

Molecule: IFN-gamma: inflammatory cytokine
xCT, Change in Ct normalized to control gene ([4]; 30 ng/ml, complete media): 1.417
xCT, Fold change normalized ([4]; 30 ng/ml, complete media): 2.7
xCT, Percent change normalized ([4]; 30 ng/ml, complete media): 270%
xCT, Change in Ct normalized to control gene [4, 9]: 1.636
xCT, Fold (absolute) change normalized [4, 9]: 3.1
xCT, Percent change normalized [4, 9]: 311%
IL1-beta, Percent change normalized ([5]; 30 ng/ml, complete media): 2,043%
IL1-beta, Percent change normalized [5, 9]: 446%

Molecule: O=C(O)c1cc(/N=N/c2ccc(S(=O)(=O)Nc3ccccn3)cc2)ccc1O [Crystalline sulfasalazine, sulfasalazine]
Cmax GB [1]: 15 µg/mL
AUC [1]: 22,200 min * ug/mL
Cmax IB [1]: 282 µg/mL

Molecule: Nc1nc2ccc(OC(F)(F)F)cc2s1 [riluzole]
increased lifespan after onset of neurological disease [3, 8]: 1%
increased absolute lifespan ([3]; same SOD1 model under similar conditions, Lincecum et al.): 1.6%

Molecule: IL-17A: inflammatory cytokine
xCT, Change in Ct normalized to control gene ([4]; 10 ng/ml, complete media): 1.652
xCT, Fold change normalized ([4]; 10 ng/ml, complete media): 3.1
xCT, Percent change normalized ([4]; 10 ng/ml, complete media): 314%
Lcn-2, Percent change normalized ([6]; 100 ng/ml): 123%
xCT, Change in Ct normalized to control gene ([7]; 100 ng/ml): 0.351
xCT, Fold change normalized ([7]; 100 ng/ml): 1.28
xCT, Percent change normalized ([7]; 100 ng/ml): 128%

Molecule: A-beta 1-40: A-beta 1-40 peptide, misfolded/aggregated protein
Lcn-2, Percent change normalized ([6]; 2 μg/ml): 130%
Lcn-2, Percent change normalized ([6]; 20 ug/ml): 140%
xCT, Change in Ct normalized to control gene ([7]; 2 μg/ml): 0.276
xCT, Fold change normalized ([7]; 2 μg/ml): 1.21
xCT, Percent change normalized ([7]; 2 μg/ml): 121%
xCT, Change in Ct normalized to control gene ([7]; 20 ug/ml): 0.951
xCT, Fold change normalized ([7]; 20 ug/ml): 1.93
xCT, Percent change normalized ([7]; 20 ug/ml): 193%

Calculated glutamate levels (xCT; 30 minutes in minimal media): 2.88 µM
Fluorescence units (xCT; 30 minutes in minimal media): 13398
Calculated glutamate levels (xCT; 120 minutes in minimal media): 9.05 µM
Fluorescence units (xCT; 120 minutes in minimal media): 34307
Calculated glutamate levels (xCT; 240 minutes in minimal media): 13.82 µM
Fluorescence units (xCT; 240 minutes in minimal media): 50468
Molecule: TNF-alpha
xCT, Change in Ct normalized to control gene [4, 9]: 3.214
xCT, Fold (absolute) change normalized [4, 9]: 9.3
xCT, Percent change normalized [4, 9]: 930%
IL1-beta, Percent change normalized [5, 9]: 3,000%
Lcn-2, Percent change normalized ([6]; 100 ng/ml): 244%
xCT, Change in Ct normalized to control gene ([7]; 100 ng/ml): 1.376
xCT, Fold change normalized ([7]; 100 ng/ml): 2.60
xCT, Percent change normalized ([7]; 100 ng/ml): 260%

B1: IL-4: anti-inflammatory cytokine, tested as a control (protein, UniProt P05112 25-153, looked up)
Interleukin-4: HKCDITLQEIIKTLNSLTEQKTLCTELTVTDIFAASKNTTEKETFCRAATVLRQFYSHHEKDTRCLGATAQQFHRHKQLIRFLKRLDRNLWGLAGLNSCPVKEANQSTLENFLERLKTIMREKYSKCSS
xCT, Change in Ct normalized to control gene [4, 9]: −0.147
xCT, Fold (absolute) change normalized [4, 9]: 0.9
xCT, Percent change normalized [4, 9]: 90%
Lcn-2, Percent change normalized ([6]; 100 ng/ml): 103%
xCT, Change in Ct normalized to control gene ([7]; 100 ng/ml): −0.097
xCT, Fold change normalized ([7]; 100 ng/ml): 0.93
xCT, Percent change normalized ([7]; 100 ng/ml): 93%
